This assay addresses T1, NPEO-DH (short ethoxy chain nonylphenol dehydrogenase) (Ensifer sp. AS08, UniProt Q2HXX0).
T1 construct: gene pegdh; complete ORF (1659 bp, 553 residues) in pCold I, His-tag, expressed in E. coli BL21(DE3) pLysS, Ni-NTA purified; FAD flavoprotein
The assay is described as follows: stopped-flow, absorbance at […] nm. The format is biochemical. The settings on record: electron acceptor; PEG 1000-reduced enzyme, 0.01 mM DCIP, 0.1 M Tris-HCl pH 8.0, 30 °C.

T1 sequence (Q2HXX0 entry or part of it): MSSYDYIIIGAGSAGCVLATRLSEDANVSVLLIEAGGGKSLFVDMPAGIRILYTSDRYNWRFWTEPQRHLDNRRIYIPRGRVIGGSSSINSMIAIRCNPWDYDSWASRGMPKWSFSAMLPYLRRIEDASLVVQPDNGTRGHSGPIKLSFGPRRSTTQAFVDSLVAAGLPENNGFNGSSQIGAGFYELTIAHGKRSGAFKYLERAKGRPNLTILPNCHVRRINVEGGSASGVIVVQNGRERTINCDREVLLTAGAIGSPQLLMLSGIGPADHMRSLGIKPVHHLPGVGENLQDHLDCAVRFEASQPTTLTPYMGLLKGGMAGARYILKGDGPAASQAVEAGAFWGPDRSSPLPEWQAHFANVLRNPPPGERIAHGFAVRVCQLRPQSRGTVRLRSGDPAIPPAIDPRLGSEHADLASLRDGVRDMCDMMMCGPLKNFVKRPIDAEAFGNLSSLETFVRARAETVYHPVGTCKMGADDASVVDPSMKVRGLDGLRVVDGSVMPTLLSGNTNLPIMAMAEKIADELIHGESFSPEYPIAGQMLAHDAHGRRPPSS

In the case of `O=C1C(Cl)=CC(=Nc2ccc(O)cc2)C=C1Cl` [2,6-dichloroindophenol], the “stopped-flow, absorbance at 600 nm” value is “performed with the reduced form of enzyme (reduced flavin) and a minimal concentration of DCIP”.

The values above are taken from article PMC3565318, “Catalytic Mechanism of Short Ethoxy Chain Nonylphenol Dehydrogenase Belonging to a Polyethylene Glycol Dehydrogenase Group in the GMC Oxidoreductase Family” (International Journal of Molecular Sciences, 2013).
